Here are results for one molecule from patent publication US11357817B2, “Immunoproteasome inhibitor” (The Regents of the University of California, priority 2017, dated 2022).

Experiment [1] relates to P. falciparum Dd2. Description: P. falciparum Dd2 asexual blood stage SYBR Green I compound sensitivity assay. Type of experiment: cell-based, Plasmodium falciparum. The following applies: Plasmodium falciparum, DD2, 72 h, asexual blood stage, 72 hour SYBR green assay. The method, then: P. falciparum Dd2 strain parasites were cultured under standard conditions (31), using RPMI media supplemented with 0.05 mg/ml gentamycin, 0.014 mg/mL hypoxanthine (prepared fresh), 38.4 mM HEPES, 0.2% Sodium Bicarbonate, 3.4 mM Sodium Hydroxide, 0.05% O+ Human Serum (Denatured at […] for 40 min and From Interstate Blood Bank, Memphis, Tenn.) and 0.0025% Albumax). Human O+ whole blood was obtained from TSRI blood bank (La Jolla, Calif.). Leukocyte-free erythrocytes are stored at 50% hematocrit in RPMI-1640 screening media (as above, but without O+ human serum and with 2× albumax concentration) at 4° C. for one to three weeks before experimental use. Cultures were monitored every one to two days via Giemsa-stained thin smears.
Compound susceptibility was measured using the malaria SYBR Green I-based fluorescence assay (32). Asynchronous P. falciparum parasites (Dd2 strain) were cultured in standard conditions before being plated for the assays. Each compound was tested over 72 hours in technical duplicates on a twelve-point concentration curve prepared by three-fold dilution from 6.7 μM to 0.11 nM. At least three independent experiments were carried out for IC50 determination. Artemisinin and chloroquine were used as controls. IC50 values were obtained using normalized fluorescence intensity from SYBR green I and analyzed via non-linear variable slope four-parameter regression curve-fitting model in Prism 6 (GraphPad Software Inc).

Experiment [2] has as its system HepG2 cells. In words: HepG2 cytotoxicity assay. The format is cell-based. The following applies: Homo sapiens. The procedure:
The liver-stage and HepG2 toxicity assays were performed as previously reported (35). Briefly, HepG2-A16-CD81EGFP, human hepatocarcinoma HepG2 cells stably transformed to express the tetraspanin CD81 receptor (36, 37) and thus susceptible to P. berghei infection, were cultured at 37° C. in 5% CO2 in DMEM (Life Technologies, Calif.) supplemented with 10% FBS, 0.29 mg/ml glutamine, 100 unit penicillin and 100 μg/ml streptomycin. For both the P. berghei-luciferase and HepG2 cytotoxicity assays, 3×10^3 of the HepG2-A16-CD81EGFP cells in 5 μl of assay medium (DMEM without Phenol Red (Life Technologies, Calif.), 5% FBS, and 5× Pen Strep Glutamine (Life Technologies, Calif.)) at concentration 6×10^5 cells/ml were seeded in 1536-well plates (Greiner BioOne white solid bottom custom GNF mold) 20-26 hours prior to the actual infection. 18 hours prior to infection, 50 nl of compound in DMSO (0.5% final DMSO concentration per well) were transferred with Acoustic Transfer System (ATS) (Biosero) into the assay plates. Atovaquone (12-point serial dilution starting at 10 μM) and Puromycin (12-point serial dilution starting at 10 μM) were used as positive controls for Pb. liver stage assay and HepG2 cytotoxicity respectively. 0.5% DMSO was used as negative control for the both assays.
An. stephensi mosquitoes, infected with P. berghei-luciferase, were provided by the New York University Insectary. P. berghei-luciferase sporozoites were freshly dissected from the infected A. stephensi mosquito salivary glands, filtered twice through a 20 μm nylon net filter using Steriflip Vacuum-Driven Filtration System (Millipore), counted in a hemocytometer, and then adjusted to final concentration 200 sporozoites per μl in the assay media. […] The HepG2-A16-CD81EGFP cell designated for toxicity studies were left uninfected, with 5 ul of additional assay media added to each well to maintain equal concentrations of compounds with P. berghei-luciferase infected plates. After incubation at 37° C. for 48 hours the exoerythrocytic growth and HepG2-A16-CD81EGFP cell viability were quantified by a bioluminescence measurement.
The HepG2 cytotoxicity was assessed by removing the media through an inverted spin of the plates at 150 g for 30 s and addition of 2 μL of CellTiterGlo reagent (Promega diluted 1:2 with deionized water) per well using the MicroFlo liquid handler (BioTek). Immediately after addition of the luminescence reagent, the plates were vortexed for 10 s and read with an EnVision Multilabel reader (PerkinElmer). IC50 values were obtained as above.

Experiment [3] relates to 20S Plasmodium proteasome (Pf20S) β2 subunit. In words: Proteasome activity assay, Pf20S β2 (z-LRR-AMC). As to conditions: 450 nM compound; proteasome not named. The format is biochemical. The procedure: Asynchronous P. falciparum cultures were grown up to 4-5% parasitemia, in 300 mL of RPMI media at 5.0% hematocrit. […] The PBS was removed and lysis buffer (0.15% saponin in PBS) was added on ice in 10 pellet volumes. Upon lysis of red blood cells, indicated by a clear red supernatant, the lysed cultures were centrifuged at 3200×g for 12 minutes at 4° C. The supernatant was removed by aspiration and the cells were washed twice using chilled PBS in microcentrifuge tubes. The cell pellets were then incubated on ice for 1 hour with occasional vortexing in a buffer consisting of 20 mM Tris-HCl pH 7.5, 5 mM MgCl2, 1 mM DTT, 100 μM E-64 and 1 mM AEBSF. This sample was then subjected to 3 rounds of freezing (−80° C.) and thawing (37° C.) and centrifugation at 6000×g for 10 min. The supernatant containing soluble P. falciparum protein was quantified by the BCA method (Pierce).
P. falciparum proteasome was enriched by two-chromatographic steps reported previously (10). […] The AMC fluorophore release was monitored at Ex 340/Em 465 nm at 24° C. using a Synergy HTX multi-mode reader (Biotek). […] Proteins were eluted using 20 mM Tris-HCl pH 7.5, 100 mM NaCl, 10% glycerol and 1 mL fractions were collected, evaluated for protease activity and pooled. […]

Experiment [4] addresses T1, c20S (Homo sapiens, UniProt P20618+P28074).
T1 construct: purchased Boston Biochem
Description: Calculation of inhibition constants (inactivation kinetics), c20S. The format is biochemical. The method, then: The rate of AMC release was calculated in the presence of serial dilution of each inhibitor. The rate of product formation were calculated at 30 min intervals for 4 hours, and normalized to activity DMSO control to calculate inactivation curves. Kobs values for each inhibitor concentration were calculated from inactivation curves, and inhibition constants KI and kinact were calculated by non-linear regression of Kobs and inhibitor concentration using GraphPad Prism 6 software.

With `CCCCCC(=O)N[C@@H](C(=O)N[C@@H](CCCC)C(=O)N[C@@H](CC(C)C)C(=O)[C@@]1(C)CO1)C(C)C` [Analog 18, (S)-2-((R)-2-hexanamido-3-methylbutanamido)-N—((S)-4-methyl-1-((R)-2-methyloxiran-2-yl)-1-oxopentan-2-yl)hexanamide], the half-inhibitory concentration (IC50) worked out at 0.00327 ± 0.000232 µM in experiment [1] and 1.24 ± 0.274 µM in experiment [2]. For the same molecule, the β2 activity reduced in experiment [3] stood at 9%. Further, the Ki in experiment [4] (c20S) was 39.2 µM. Also, the “loss in potency to the human c20S proteasome” value in experiment [4] (kinact/Ki, 18 versus 1) was 100 fold.

Usually IC50 stands for the concentration needed to halve the response being measured.
